From ChEMBL document CHEMBL1201862, “PubChem BioAssay data set” (2004)
Activity calls are given as the source filed them.

Key:
[1] = tested on: HEK293; assay: EBV LMP1 TES2 canonical NF-kB signalling blockers – cell-based, HEK293, luciferase, cherry-pick, dose response (AID 588343); assay type: functional; conditions: Homo sapiens
[2] = target: T1, Carboxy-terminal domain RNA polymerase II polypeptide A small phosphatase 1 (Homo sapiens, UniProt Q9GZU7); assay: CTDSP1 inhibitors, concentration-response, biochemical, absorbance readout, ultra-high-throughput screen actives (AID 540297); assay type: functional
T1 sequence (Q9GZU7 whole entry): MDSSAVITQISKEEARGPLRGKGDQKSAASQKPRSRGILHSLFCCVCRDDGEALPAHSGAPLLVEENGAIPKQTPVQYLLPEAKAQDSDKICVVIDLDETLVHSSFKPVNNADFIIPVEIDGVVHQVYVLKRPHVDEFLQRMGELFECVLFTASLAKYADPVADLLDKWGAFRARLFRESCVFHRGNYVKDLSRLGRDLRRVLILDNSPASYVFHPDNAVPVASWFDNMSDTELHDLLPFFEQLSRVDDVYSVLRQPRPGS

[3] = target: T2, Zinc finger protein mex-5 (Caenorhabditis elegans, UniProt Q9XUB2); assay: potency of MEX-5 RNA-binding blockers – biochemical, C. elegans, fluorescence polarization, dose response (AID 1960)
T2 sequence (Q9XUB2 whole entry): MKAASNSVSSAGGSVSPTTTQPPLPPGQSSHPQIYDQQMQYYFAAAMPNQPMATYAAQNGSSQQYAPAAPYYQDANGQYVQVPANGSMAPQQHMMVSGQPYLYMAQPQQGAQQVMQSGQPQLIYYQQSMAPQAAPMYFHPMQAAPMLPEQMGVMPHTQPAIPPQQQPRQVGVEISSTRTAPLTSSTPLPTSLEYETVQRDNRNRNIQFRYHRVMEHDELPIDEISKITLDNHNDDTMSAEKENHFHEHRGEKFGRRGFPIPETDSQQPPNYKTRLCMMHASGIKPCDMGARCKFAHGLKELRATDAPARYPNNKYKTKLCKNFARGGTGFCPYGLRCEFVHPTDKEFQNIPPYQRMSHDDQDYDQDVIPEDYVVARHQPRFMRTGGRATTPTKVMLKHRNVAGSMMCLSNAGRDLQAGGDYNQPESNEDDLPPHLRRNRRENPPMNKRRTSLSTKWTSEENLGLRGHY

[4] = target: T3, RNA-binding protein pos-1 (Caenorhabditis elegans, UniProt G5EF15); assay: disruptors of C. elegans POS-1 RNA interaction – biochemical, fluorescence polarization, dose response (AID 1964);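 note: purified POS-1 fused to maltose binding protein made in E. coli; potency of compounds blocking POS-1 binding to fluorescent RNA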
T3 sequence (G5EF15 whole entry): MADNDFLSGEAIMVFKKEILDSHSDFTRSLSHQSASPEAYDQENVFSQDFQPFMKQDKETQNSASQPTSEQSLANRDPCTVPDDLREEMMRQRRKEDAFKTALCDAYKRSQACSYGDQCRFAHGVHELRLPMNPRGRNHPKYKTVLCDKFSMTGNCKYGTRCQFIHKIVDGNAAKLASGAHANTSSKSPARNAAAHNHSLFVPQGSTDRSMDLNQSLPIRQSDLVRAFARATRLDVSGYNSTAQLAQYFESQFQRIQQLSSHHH

[5] = tested on: Escherichia coli; assay: microbe, parasite or virus in culture
[6] = target: T4, Histone-lysine N-methyltransferase NSD2 (Homo sapiens, UniProt O96028); assay type: biochemical
T4 sequence (O96028 whole entry): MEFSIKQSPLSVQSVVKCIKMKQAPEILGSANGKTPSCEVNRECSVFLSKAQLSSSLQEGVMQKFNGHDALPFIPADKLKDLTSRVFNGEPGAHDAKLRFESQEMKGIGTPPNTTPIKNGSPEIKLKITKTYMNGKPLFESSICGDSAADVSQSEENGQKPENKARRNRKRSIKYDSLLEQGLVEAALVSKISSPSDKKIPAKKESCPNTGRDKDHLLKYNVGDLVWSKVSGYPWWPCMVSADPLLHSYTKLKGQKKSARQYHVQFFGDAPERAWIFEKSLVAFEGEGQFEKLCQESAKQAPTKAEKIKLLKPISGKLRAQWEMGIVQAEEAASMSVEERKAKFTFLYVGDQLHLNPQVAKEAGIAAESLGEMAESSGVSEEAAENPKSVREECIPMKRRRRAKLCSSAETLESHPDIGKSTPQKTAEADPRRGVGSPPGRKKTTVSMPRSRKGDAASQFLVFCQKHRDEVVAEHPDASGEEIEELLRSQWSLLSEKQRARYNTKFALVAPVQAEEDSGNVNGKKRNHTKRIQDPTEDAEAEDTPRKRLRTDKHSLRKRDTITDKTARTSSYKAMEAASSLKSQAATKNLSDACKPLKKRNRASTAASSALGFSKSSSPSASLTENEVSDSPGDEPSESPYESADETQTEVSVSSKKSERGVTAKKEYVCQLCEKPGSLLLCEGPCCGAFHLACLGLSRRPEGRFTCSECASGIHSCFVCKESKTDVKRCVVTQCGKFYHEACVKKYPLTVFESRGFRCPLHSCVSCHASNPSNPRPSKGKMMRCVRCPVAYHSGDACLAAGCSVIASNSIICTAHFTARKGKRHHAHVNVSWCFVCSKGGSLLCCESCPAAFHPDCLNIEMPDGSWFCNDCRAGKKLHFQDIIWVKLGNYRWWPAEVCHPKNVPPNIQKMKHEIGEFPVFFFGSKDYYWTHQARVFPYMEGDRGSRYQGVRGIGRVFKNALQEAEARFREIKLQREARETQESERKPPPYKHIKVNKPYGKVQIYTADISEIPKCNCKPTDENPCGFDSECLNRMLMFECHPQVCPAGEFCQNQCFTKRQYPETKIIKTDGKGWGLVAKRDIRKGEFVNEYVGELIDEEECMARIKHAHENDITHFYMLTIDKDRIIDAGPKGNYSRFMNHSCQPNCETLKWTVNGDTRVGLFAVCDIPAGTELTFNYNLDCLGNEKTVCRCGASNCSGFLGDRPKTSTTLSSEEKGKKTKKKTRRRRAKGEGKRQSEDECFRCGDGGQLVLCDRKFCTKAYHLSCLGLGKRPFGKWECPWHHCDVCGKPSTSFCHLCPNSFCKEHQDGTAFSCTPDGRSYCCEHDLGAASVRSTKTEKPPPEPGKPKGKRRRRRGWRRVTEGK

[7] = target: T5, Cysteine protease ATG4B (Homo sapiens, UniProt Q9Y4P1); assay type: functional;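 note: Fluorescence-based dose-response confirmation assay measuring inhibition of ATG4B activity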
T5 sequence (Q9Y4P1 whole entry): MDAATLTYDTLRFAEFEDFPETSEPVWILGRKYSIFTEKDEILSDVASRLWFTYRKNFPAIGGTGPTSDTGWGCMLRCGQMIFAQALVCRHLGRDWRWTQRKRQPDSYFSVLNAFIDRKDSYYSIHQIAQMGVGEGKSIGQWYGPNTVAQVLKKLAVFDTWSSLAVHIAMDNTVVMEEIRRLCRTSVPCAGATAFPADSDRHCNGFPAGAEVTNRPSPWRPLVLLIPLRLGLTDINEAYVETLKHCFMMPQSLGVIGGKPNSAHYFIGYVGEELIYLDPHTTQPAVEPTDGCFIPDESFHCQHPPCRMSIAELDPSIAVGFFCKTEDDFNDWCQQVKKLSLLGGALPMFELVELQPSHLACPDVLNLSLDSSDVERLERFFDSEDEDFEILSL

[8] = target: T6, Neuropeptide Y receptor type 2 (Homo sapiens, UniProt P49146); assay type: functional, cell-based;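 note: HEK293 cells expressing the receptor and a CNG channel; stimulus was NPY near EC95 followed by isoproterenol to raise cAMP; antagonist potency measured as restoring cAMP signal that NPY suppresses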
T6 sequence (P49146 whole entry): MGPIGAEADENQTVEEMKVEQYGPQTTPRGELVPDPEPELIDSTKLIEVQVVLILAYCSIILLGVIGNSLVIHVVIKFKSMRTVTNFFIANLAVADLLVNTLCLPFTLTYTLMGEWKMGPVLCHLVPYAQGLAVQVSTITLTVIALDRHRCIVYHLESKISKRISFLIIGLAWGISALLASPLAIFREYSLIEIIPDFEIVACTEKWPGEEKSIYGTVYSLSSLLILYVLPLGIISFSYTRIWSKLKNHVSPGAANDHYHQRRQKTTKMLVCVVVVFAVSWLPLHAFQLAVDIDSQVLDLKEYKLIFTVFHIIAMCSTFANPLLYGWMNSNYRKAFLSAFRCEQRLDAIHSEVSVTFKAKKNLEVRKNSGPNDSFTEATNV

[9] = target: Phospholipase A2 (Homo sapiens, UniProt P04054); assay type: functional;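 note: confirmatory dose-response counterscreen on phospholipase A2, testing hits that came from an ultra-high-throughput screen for ATG4B inhibitors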
Phospholipase A2, sequence (P04054 whole entry): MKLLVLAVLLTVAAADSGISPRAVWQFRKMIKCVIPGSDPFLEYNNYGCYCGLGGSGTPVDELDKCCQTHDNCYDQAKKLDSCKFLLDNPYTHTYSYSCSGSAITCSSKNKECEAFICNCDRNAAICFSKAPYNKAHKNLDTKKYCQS

[10] = target: T7, Neuropeptide Y receptor type 1 (Homo sapiens, UniProt P25929); assay type: functional;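 note: HEK293 cells with a CNG channel challenged with NPY then isoproterenol; potency as antagonist that reverses NPY suppression of cAMP signal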
T7 sequence (P25929 whole entry): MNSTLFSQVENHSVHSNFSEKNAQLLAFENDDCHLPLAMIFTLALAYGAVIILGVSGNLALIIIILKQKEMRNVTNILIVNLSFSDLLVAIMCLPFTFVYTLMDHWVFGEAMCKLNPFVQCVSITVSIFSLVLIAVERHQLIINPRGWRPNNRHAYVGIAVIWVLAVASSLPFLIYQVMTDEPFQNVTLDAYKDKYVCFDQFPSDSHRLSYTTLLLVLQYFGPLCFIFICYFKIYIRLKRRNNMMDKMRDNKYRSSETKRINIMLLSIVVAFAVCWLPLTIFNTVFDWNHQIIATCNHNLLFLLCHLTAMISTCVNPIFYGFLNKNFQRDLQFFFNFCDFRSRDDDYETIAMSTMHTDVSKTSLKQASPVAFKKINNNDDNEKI

[11] = target: T8, Endoribonuclease toxin MazF (Escherichia coli K-12, UniProt P0AE70); assay: activation of MazEF endoribonuclease cleavage – biochemical, fluorescence, single-stranded RNA substrate, uHTS hits, dose response (AID 588481); assay type: functional
T8 sequence (P0AE70 whole entry): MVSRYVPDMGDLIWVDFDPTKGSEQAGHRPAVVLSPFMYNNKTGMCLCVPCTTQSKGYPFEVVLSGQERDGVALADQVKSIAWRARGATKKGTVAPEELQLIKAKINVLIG

[12] = target: T8, Endoribonuclease toxin MazF; assay: substrate-only fluorescence increase artefacts – biochemical, single-stranded RNase substrate, counter-screen for MazEF activator project, dose response (AID 588502); assay type: functional
[13] = target: T9, Mitochondrial peptide methionine sulfoxide reductase (Bos taurus, UniProt P54149); assay: Absorbance-based biochemical high throughput dose response assay for activators of Methionine sulfoxide reductase A (MsrA).; assay type: functional
T9 sequence (P54149 whole entry): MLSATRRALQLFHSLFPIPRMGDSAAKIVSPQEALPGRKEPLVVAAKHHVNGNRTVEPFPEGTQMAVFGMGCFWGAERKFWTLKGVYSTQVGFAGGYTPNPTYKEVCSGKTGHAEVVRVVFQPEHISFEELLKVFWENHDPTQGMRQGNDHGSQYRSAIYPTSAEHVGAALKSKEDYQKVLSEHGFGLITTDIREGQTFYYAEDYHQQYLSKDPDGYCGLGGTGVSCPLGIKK

[14] = target: DNA dC->dU-editing enzyme APOBEC-3A (Homo sapiens, UniProt P31941); assay: SAR analysis of small molecule inhibitors of APOBEC3A DNA Deaminase via a fluorescence-based single-stranded DNA deaminase assay - Set 2.; assay type: functional; conditions: read-out: IC50_Mean
DNA dC->dU-editing enzyme APOBEC-3A, sequence (P31941 whole entry): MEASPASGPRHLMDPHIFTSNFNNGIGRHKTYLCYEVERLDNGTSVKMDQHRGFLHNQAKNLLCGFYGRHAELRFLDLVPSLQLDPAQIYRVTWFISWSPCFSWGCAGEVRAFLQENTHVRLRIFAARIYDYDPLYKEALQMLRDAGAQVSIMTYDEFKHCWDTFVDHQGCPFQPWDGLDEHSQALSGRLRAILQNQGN

[15] = target: DNA dC->dU-editing enzyme APOBEC-3G (Homo sapiens, UniProt Q9HC16); assay: SAR analysis of small molecule inhibitors of APOBEC3G DNA Deaminase via a fluorescence-based single-stranded DNA deaminase assay - Set 2.; assay type: functional; conditions: read-out: IC50_Mean
DNA dC->dU-editing enzyme APOBEC-3G, sequence (Q9HC16 whole entry): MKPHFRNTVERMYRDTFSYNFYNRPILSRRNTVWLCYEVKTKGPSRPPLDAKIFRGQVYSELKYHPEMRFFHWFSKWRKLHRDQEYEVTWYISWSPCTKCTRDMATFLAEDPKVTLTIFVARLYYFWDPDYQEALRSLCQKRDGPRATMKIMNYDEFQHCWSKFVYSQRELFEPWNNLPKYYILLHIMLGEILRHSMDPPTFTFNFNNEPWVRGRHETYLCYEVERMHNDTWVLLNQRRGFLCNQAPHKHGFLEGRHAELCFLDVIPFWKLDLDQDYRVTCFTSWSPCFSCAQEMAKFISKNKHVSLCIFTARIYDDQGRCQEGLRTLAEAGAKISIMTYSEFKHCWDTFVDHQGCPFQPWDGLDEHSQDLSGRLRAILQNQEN

[16] = tested on: SN12K1; assay: cells; assay type: functional; conditions: Homo sapiens
[17] = tested on: P388; assay: cells; assay type: functional; conditions: Mus musculus
[18] = tested on: P388/ADR; assay: cells; assay type: functional; conditions: Mus musculus

COc1ccc(-n2c(C)c([N+](=O)[O-])c3ccc(O)c(CN(C)C)c32)cc1
AC50 [1]: 2.53 µM (active)

CCOc1cccc(=O)c2c(C)n(-c3ccc(C(=O)O)cc3)c(C)c12
IC50 [2]: 4.54 µM (active)
EC50 [3]: 29.6 µM (active)
EC50 [4]: 41.3 µM (active)
AC50 [5]: > 150 µM (inactive)
AC50 [6]: 17.2 µM (active)

CC(Sc1ccc(Cl)cc1)C(=O)Nc1ccccc1-c1ccccc1 (centres undefined)
IC50 [7]: 49.7 µM (inactive)
IC50 [8]: 4.77 µM (active)
IC50 [9]: 4.74 µM (active)
IC50 [10]: 10.3 µM (not active)

COc1cc(OC)cc(-c2nc3ccccc3c(=O)n2OC(=O)c2ccccc2C)c1
IC50 [7]: 21.4 µM (inactive)
IC50 [9]: 7.51 µM (active)

CCSc1nnc(N2C(=O)C(O)=C(C(=O)c3ccco3)C2c2cccc(OC)c2)s1 (centres undefined)
EC50 [11]: > 99 µM (inactive)
EC50 [12]: > 99 µM (inactive)

NC(=S)NN=C1CSSC1
EC50 [13]: 12.9 µM (inactive)

CN(Cc1ccccc1)C(=O)c1cc2ncc(Br)cn2n1
IC50 [14]: 34.5 µM (inactive)
IC50 [15]: 77.8 µM (inactive)

CN1c2c(O)nc(N)nc2NCC1CCNc1ccc(C(=O)NC(CCC(=O)O)C(=O)O)cc1 (centres undefined)
GI50 [16]: 5.5 µM (inactive)
GI50 [17]: 4.5 µM (inactive)
GI50 [18]: 2.49 µM (inactive)

CCCCCCNC(=O)C(C)C1CCC2(C)C=CC(=O)C(C)=C2C1O (centres undefined)
GI50 [16]: > 100 µM (inactive)
GI50 [17]: 62.5 µM (inactive)
GI50 [18]: > 42.3 µM (inactive)

O=C(NCc1ccccc1)c1cccc(COc2ccc3c(c2)CCC3)c1
AC50 [1]: 4.83 µM (active)

N=c1c[n+](N2CCOCC2)[n-]o1
EC50 [11]: 30.3 µM (inactive)
EC50 [12]: > 99 µM (inactive)

COc1cc([C@@H]2c3cc4c(cc3C[C@H]3COC(=O)[C@@H]32)OCO4)cc(OC)c1OC [DESOXYPODOPHYLLOTOXIN]
GI50 [16]: 0.00596 µM (active)
GI50 [17]: 0.005 µM (active)
GI50 [18]: 0.0108 µM (active)
